# Assay results reported in US5424204A, “Method for stabilizing glucose 6-phosphate dehydrogenase with hydroxylamines, aldehyde scavengers, dimethylthiocarbamoyl chloride or 2-(2-aminoethylamino) ethanol” (Kyowa Medex Co., Ltd., priority 1993, dated 1995).
# Counter-ions that a name gives are not always drawn.
# Tested on: glucose 6-phosphate dehydrogenase
# Assay: Stabilization of glucose 6-phosphate dehydrogenase in a reagent for measuring the activity of creatine kinase (residual activity after storage)
# Type: biochemical
# Settings: 10 mM additive in reagent solution 1 (pH 6.6), activity immediately after preparation = 100%; for Residual activity after 3 months (%): stored at 10° C. for 3 months; for Residual Activity after 12 months (%): stored at 10° C. for 12 months
Compound,Residual activity after 3 months (%),Residual Activity after 12 months (%)
"Cl.NO [Compound I-1, hydroxylamine hydrochloride]",100.2%,85.9%
"NO.NO.O=S(=O)(O)O [Compound I-2, hydroxylamine sulfate]",99.8%,88.7%
"NO.O=C(O)C(=O)O [Compound I-3, hydroxylamine oxalate]",98.2%,89.2%
"Cl.NOCC(=O)O [Compound I-4, carboxymethoxylamine hydrochloride]",99.9%,88.9%
"Cl.NOCc1ccccc1 [Compound I-5, O-benzylhydroxylamine hydrochloride]",96.8%,78.9%
"O=C(c1ccccc1)N(O)c1ccccc1 [Compound I-6, N-benzoyl-N-phenylhydroxylamine]",80.5%,30.3%
"Cc1ccccc1N(O)C(=O)c1ccccc1 [Compound I-7, N-benzoyl-N-(2-methylphenyl)hydroxylamine]",81.5%,25.6%
"O=C(C=Cc1ccccc1)N(O)c1ccccc1 [Compound I-8, N-cinnamoyl-N-phenylhydroxylamine]",90.4%,44.5%
"CNO [Compound I-9, N-methylhydroxylamine]",100.1%,80.3%
"CON [Compound I-10, O-methylhydroxylamine]",99.7%,82.3%
"Cc1cccc(N(O)C(=O)C=Cc2ccccc2)c1C [Compound I-11, N-cinnamoyl-N-2,3-xylylhydroxylamine]",79.6%,23.6%
"CC(C)(C)NO [Compound I-12, N-(tert-butyl)hydroxylamine]",75.5%,22.2%
"Cl.ONC1CCCCC1 [Compound I-13, N-cyclohexylhydroxylamine hydrochloride]",92.1%,80.2%
"NNC(=O)c1ccccc1 [II-1, benzoylhydrazine]",100.1%,87.6%
"NNC(=O)C(=O)NN [II-3, oxalyldihydrazide]",88.5%,65.2%
"NNC(=O)c1cccnc1 [II-4, nicotinic acid hydrazide]",70.3%,38.5%
"CCOC(=O)CNN [II-5, ethylhydrazinoaceate hydrochloride]",75.4%,28.3%
"Br.NNC1=NCCN1 [II-6, 2-hydrazino-2-imidazoline hydrobromide]",89.2%,58.5%
"NNC(=O)c1cc2ccccc2cc1O [II-7, 3-hydroxy-2-naphthoenic acid hydrazide]",89.7%,60.3%
"COC(=O)NN [II-8, methyl carbazate]",99.8%,86.5%
"CC(=O)NNC(N)=S [II-9, 1-acetylthiosemicarbazide]",82.3%,45.6%
"CCOC(=O)NN [II-12, ethyl carbazate]",102.2%,88.3%
"CCNC(=S)NN [II-13, 4-ethyl-3-thiosemicarbazide]",90.2%,62.1%
"NNC(=O)Nc1ccccc1 [II-14, 4-phenylsemicarbazide]",99.9%,86.5%
"CC(C)NNC(=O)c1ccncc1 [II-15, iproniazide]",65.8%,20.1%
"CC(C)=NNC(N)=S [II-16, acetone thiosemicarbazone]",79.8%,41.5%
"NC(=S)C(N)=S [II-17, dithiooxyamide]",75.2%,32.3%
"CN(C)C(=S)Cl [III, dimethylthiocarbamoyl chloride]",80.3%,43.2%
"NCCNCCO [IV, 2-(2-aminoethylamino) ethanol]",98.7%,81.1%
